# From patent US7935718B2, “Treatment of dyskinesia” (Motac Neuroscience Limited, priority 2000, dated 2011)
# What was measured:
# [1] = tested on: reserpine-treated rat model of Parkinson's disease; assay: Locomotion (hyperkinesia) after chloro-APB in reserpine-treated parkinsonian rats; format: in vivo; conditions: reserpine (3 mg/kg) rats, chloro-APB (0.2 mg/kg) + imetit (1 mg/kg) versus vehicle, one hour period
# Experimental: The effect of the H3-histamine receptor agonist imetit on dyskinesia was assessed in a reserpine-treated rat model of Parkinson's disease following treatment of the rats with the anti-parkinsonian agent chloro-APB (0.2 mg/kg).
# Male Sprague-Dawley rats were split into two groups A and B. Rats in both groups were rendered parkinsonian by subcutaneous administration of reserpine (3 mg/kg) for 18 hours.
# After the 18 hours Group A were treated with chloro-APB (0.2 mg/kg) and imetit (1 mg/kg) whereas B were treated with chloro-APB (0.2 mg/kg) and vehicle for imetit only.
# The locomotion of the rats in Groups A and B was measured over a one hour period using Benwick locomotor monitors. These locomotion monitors consist of a visually-shielded open-field arena, the perimeter of which is surrounded by a series of infra-red beams arranged at 5 cm intervals. PC-based software (Amlogger) assesses the number of beams broken. The number of beams broken as part of a locomotor movement (mobile counts) or the number of beam breaks while the animal is not locomoting (static counts) were measured. In addition, the system assesses the time for which animals are mobile or static.
# [2] = tested on: MPTP-lesioned marmoset model of Parkinson's disease; assay: L-DOPA-induced mobility and dyskinesia in MPTP-lesioned marmosets; format: in vivo, Marmosets (Callithrix jacchus); conditions: L-DOPA (8 mg/kg) + imetit 1, 3, 10 mg/kg oral; assessed every 30 minutes for 4 hours
# Experimental: The effect of the H3-histamine receptor agonist imetit on L-DOPA-induced dyskinesia was assessed in the MPTP-lesioned marmoset model of Parkinson's disease.
# Marmosets (Callithrix jacchus) (bred in a closed colony at the University of Manchester) are rendered parkinsonian by subcutaneous injection of 2 mg kg^−1 MPTP for 5 consecutive days. The marmosets are allowed to recover for a minimum of 10 weeks until their parkinsonism becomes stable. The degree of activity and disability before and after MPTP treatment is assessed using a combination of scales as described in section 2.1.2. Animals are then treated with L-DOPA for at least 3 weeks to prime them to elicit dyskinesia. […]
# The behavioural tests were assessed every 30 minutes for 4 hours, by post hoc analysis of video-recordings by an observer blinded to the treatment. […]
compound,measurement,setting,value
N=C(N)SCCc1cnc[nH]1 [imetit],total mobile counts,[1],less than those treated with vehicle
same,L-DOPA-induced mobility (mobility score),[2],no effect on L-DOPA-induced mobility
same,severity of L-DOPA-induced dyskinesia (dyskinesia score),[2],dose-dependent reduction
